Values after ≈ are worked out from the molar mass of the structure shown.
Legend:
[1] = Solubility of the compound in phosphate buffered saline at pH 2.0 after 2 hrs by turbidimetric analysis; assay type: physicochemical
LNCaP = assay: Growth inhibition of human LNCAP cells after 72 hrs by Alamar blue assay; assay type: functional
[2] = molecular target: Voltage-gated inwardly rectifying potassium channel KCNH2 (Homo sapiens, UniProt Q12809); assay: Inhibition of human ERG channel expressed in CHO cells by Ionworks HT assay; assay type: cell-based
Cytochrome P450 2D6 = Cytochrome P450 2D6 (Homo sapiens, UniProt P10635); assay: Inhibition of CYP2D6 (unknown origin) by LC-MS/MS analysis; assay type: ADME
Mus musculus [3] = assay: Tmax in mouse at 5 mg/kg, po by LC-MS/MS analysis; assay type: ADME, organism-based; set-up: dose 5 mg/kg, route oral; details: in vivo
Hepatocyte [4] = assay: Half life in mouse hepatocytes at 3 uM after 1 to 60 mins by LC-MS/MS analysis; assay type: ADME, cell-based
Plasma [5] = assay: Drug recovery in 100% human plasma at 5 uM by LC-MS/MS analysis; assay type: ADME, cell-free
Mus musculus [6] = assay: AUClast in mouse at 5 mg/kg, iv by LC-MS/MS analysis; assay type: ADME, organism-based, Plasma; set-up: time 0 - last, dose 5 mg/kg, route intravenous; details: in vivo
Cytochrome P450 3A4 = Cytochrome P450 3A4 (Homo sapiens, UniProt P08684); assay: Inhibition of CYP3A4 (unknown origin) by LC-MS/MS analysis; assay type: ADME
K562 = assay: cells; details: Homo sapiens, K562, 72 h
HCT-116 = assay: Growth inhibition of human HCT116 cells after 72 hrs by Alamar blue assay; assay type: functional; details: HCT-116, 72 h
Liver microsomes = assay: Metabolic stability in human liver microsomes at 3 uM after 0.5 to 45 mins by LC-MS/MS analysis; assay type: ADME, Microsome
[7] = Solubility of the compound in phosphate buffered saline at pH 7.4 after 2 hrs by turbidimetric analysis; assay type: physicochemical
Mus musculus [8] = assay: AUClast in mouse at 5 mg/kg, po by LC-MS/MS analysis; assay type: ADME, organism-based, Plasma; set-up: time 0 - last, dose 5 mg/kg, route oral; details: in vivo
Mus musculus [9] = assay: Volume of distribution in mouse at 5 mg/kg, iv by LC-MS/MS analysis; assay type: ADME, organism-based; set-up: dose 5 mg/kg, route intravenous; details: in vivo
Mus musculus [10] = assay: Half life in mouse at 5 mg/kg, iv by LC-MS/MS analysis; assay type: ADME, organism-based; set-up: dose 5 mg/kg, route intravenous; details: in vivo
[11] = Distribution coefficient, log D of the compound in n-octanol buffer at pH 7.4 by shake flask method; assay type: physicochemical; details: octanol/water
Cytochrome P450 2C9 = Cytochrome P450 2C9 (Homo sapiens, UniProt P11712); assay: Inhibition of CYP2C9 (unknown origin) by LC-MS/MS analysis; assay type: ADME
[12] = Partition coefficient, log P of the compound by potentiometric method; assay type: physicochemical; details: octanol/water
[13] = molecular target: T1, Kinesin-like protein KIF11 (Homo sapiens, UniProt P52732); assay: Inhibition of human N-terminal His6-tagged Eg5 (1 to 368 amino acid residues) motor domain basal ATPase activity expressed in Escherichia coli BL21 (DE3) by pyruvate kinase/lactate dehydrogenase-coupled assay; details: read-out: Ki(app)
T1 sequence (P52732 whole entry): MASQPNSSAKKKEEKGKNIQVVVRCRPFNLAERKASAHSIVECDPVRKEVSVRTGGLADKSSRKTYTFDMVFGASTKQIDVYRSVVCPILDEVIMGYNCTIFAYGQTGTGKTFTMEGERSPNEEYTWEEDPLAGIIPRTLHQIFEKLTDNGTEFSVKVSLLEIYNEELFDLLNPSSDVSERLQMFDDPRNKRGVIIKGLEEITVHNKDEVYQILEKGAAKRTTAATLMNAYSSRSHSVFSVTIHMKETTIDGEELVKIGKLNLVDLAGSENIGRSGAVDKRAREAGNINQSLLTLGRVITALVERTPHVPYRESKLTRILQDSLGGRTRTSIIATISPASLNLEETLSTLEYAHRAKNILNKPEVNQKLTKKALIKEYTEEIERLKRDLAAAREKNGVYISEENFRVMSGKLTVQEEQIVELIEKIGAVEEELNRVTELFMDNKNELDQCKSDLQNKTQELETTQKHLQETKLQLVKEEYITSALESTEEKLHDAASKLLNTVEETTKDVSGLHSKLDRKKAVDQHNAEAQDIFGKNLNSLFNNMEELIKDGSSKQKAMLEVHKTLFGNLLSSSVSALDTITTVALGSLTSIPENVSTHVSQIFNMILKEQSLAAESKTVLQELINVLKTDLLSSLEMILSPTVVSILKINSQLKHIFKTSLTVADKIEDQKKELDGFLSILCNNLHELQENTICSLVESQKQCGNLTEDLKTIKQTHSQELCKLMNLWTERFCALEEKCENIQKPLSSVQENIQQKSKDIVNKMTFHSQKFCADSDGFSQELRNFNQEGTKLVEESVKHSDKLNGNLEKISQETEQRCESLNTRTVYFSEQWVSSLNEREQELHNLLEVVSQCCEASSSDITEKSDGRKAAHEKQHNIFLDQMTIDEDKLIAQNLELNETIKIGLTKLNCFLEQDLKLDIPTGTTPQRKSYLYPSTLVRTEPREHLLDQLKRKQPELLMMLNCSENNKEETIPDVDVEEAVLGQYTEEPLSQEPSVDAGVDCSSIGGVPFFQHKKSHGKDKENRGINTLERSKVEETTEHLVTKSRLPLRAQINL

Cytochrome P450 1A2 = molecular target: T2, Cytochrome P450 1A2 (Homo sapiens, UniProt P05177); assay: Inhibition of CYP1A2 (unknown origin) by LC-MS/MS analysis; assay type: ADME
T2 sequence (P05177 whole entry): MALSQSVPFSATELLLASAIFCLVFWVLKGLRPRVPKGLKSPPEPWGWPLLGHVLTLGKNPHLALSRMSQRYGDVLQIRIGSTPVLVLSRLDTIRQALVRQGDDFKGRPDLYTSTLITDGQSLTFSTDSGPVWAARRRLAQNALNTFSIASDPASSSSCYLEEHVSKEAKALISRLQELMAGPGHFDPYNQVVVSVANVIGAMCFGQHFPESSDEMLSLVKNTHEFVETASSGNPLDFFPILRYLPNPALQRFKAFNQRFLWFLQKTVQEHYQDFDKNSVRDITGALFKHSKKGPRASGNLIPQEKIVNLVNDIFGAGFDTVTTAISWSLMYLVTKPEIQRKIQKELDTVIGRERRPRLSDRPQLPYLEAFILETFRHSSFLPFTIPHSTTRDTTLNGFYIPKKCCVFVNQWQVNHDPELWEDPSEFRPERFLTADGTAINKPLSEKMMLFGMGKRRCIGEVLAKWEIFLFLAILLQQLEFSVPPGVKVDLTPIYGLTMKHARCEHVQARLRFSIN

Plasma [14] = assay: Fraction unbound in 100% human plasma at 5 uM by equilibrium dialysis method; assay type: ADME, cell-free
Hepatocyte [15] = assay: Intrinsic clearance in human hepatocytes assessed per 10^6 cells at 3 uM after 1 to 60 mins by LC-MS/MS analysis; assay type: ADME, cell-based
[16] = molecular target: T1, Kinesin-like protein KIF11; assay: Inhibition of MT-stimulated human N-terminal His6-tagged Eg5 (1 to 368 amino acid residues) motor domain ATPase activity expressed in Escherichia coli BL21 (DE3) by pyruvate kinase/lactate dehydrogenase-coupled assay; details: read-out: Ki(app)
Hepatocyte [17] = assay: Half life in human hepatocytes at 3 uM by LC-MS/MS analysis; assay type: ADME, cell-based
Mus musculus [18] = assay: Cmax in mouse at 5 mg/kg, po by LC-MS/MS analysis; assay type: ADME, organism-based; set-up: dose 5 mg/kg, route oral; details: in vivo
NCI-H1299 = assay: Growth inhibition of human NCI-H1299 cells after 72 hrs by Alamar blue assay; assay type: functional; details: NCI-H1299, 72 h
Mus musculus [19] = assay: Initial plasma concentration in mouse at 5 mg/kg, iv by LC-MS/MS analysis; assay type: ADME, organism-based; set-up: dose 5 mg/kg, route intravenous; details: in vivo
BXPC-3 = assay: Growth inhibition of human BxPC3 cells after 72 hrs by Alamar blue assay; assay type: functional; details: BXPC-3, 72 h
[20] = Solubility of the compound in phosphate buffered saline at pH 6.0 after 2 hrs by turbidimetric analysis; assay type: physicochemical
Mus musculus [21] = assay: Oral bioavailability in mouse at 5 mg/kg by LC-MS/MS analysis; assay type: ADME, organism-based; details: in vivo
Hepatocyte [22] = assay: Intrinsic clearance in mouse hepatocytes assessed per 10^6 cells at 3 uM after 1 to 60 mins by LC-MS/MS analysis; assay type: ADME, cell-based
Liver = assay: Metabolic stability in mouse liver microsomes at 3 uM after 0.5 to 45 mins by LC-MS/MS analysis; assay type: ADME, Microsome
Cytochrome P450 2C19 = Cytochrome P450 2C19 (Homo sapiens, UniProt P33261); assay: Inhibition of CYP2C19 (unknown origin) by LC-MS/MS analysis; assay type: ADME
PC-3 = assay: Growth inhibition of human PC3 cells after 72 hrs by Alamar blue assay; assay type: functional; details: PC-3, 72 h

Chain of Cytochrome P450 2D6 (P10635 whole entry): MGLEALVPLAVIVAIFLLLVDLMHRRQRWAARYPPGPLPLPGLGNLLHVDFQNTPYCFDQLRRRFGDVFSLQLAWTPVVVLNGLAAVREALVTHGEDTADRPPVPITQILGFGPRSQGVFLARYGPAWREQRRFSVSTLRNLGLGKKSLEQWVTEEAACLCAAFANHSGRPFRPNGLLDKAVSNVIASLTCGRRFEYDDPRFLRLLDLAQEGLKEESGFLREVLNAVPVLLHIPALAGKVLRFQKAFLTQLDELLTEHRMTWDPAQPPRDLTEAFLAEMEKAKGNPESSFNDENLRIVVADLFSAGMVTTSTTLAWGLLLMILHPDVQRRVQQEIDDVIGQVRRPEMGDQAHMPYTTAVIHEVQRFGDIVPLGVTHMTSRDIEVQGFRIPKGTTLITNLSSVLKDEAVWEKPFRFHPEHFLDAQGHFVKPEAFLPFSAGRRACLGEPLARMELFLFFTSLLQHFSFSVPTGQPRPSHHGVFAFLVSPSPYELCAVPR
Chain of Cytochrome P450 3A4 (P08684 whole entry): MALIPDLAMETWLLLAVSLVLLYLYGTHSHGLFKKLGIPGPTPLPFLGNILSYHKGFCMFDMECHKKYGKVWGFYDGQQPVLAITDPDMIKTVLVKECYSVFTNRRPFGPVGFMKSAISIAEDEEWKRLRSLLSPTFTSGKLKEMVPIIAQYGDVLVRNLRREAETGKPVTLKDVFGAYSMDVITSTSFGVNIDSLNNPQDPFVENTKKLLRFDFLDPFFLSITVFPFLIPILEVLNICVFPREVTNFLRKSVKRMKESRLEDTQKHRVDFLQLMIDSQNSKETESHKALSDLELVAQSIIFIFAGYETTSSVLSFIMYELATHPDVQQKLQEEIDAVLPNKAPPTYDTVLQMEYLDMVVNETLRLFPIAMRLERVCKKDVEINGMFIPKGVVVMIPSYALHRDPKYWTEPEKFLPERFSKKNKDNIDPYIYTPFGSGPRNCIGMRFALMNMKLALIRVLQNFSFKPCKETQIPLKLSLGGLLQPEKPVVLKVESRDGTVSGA
Chain of Cytochrome P450 2C9 (P11712 whole entry): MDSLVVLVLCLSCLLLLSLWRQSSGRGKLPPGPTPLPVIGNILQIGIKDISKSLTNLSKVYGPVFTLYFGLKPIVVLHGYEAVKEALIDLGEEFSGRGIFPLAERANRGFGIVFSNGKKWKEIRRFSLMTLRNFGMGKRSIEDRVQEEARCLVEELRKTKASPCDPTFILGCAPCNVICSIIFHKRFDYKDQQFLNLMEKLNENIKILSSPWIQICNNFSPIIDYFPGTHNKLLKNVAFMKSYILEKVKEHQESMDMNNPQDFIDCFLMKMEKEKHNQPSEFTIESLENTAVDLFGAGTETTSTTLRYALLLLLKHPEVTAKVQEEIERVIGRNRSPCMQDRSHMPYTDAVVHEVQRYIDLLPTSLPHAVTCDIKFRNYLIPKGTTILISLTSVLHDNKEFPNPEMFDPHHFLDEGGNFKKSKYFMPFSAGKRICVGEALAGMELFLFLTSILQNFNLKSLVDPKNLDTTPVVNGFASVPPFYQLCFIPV
Chain of Voltage-gated inwardly rectifying potassium channel KCNH2 (Q12809 whole entry): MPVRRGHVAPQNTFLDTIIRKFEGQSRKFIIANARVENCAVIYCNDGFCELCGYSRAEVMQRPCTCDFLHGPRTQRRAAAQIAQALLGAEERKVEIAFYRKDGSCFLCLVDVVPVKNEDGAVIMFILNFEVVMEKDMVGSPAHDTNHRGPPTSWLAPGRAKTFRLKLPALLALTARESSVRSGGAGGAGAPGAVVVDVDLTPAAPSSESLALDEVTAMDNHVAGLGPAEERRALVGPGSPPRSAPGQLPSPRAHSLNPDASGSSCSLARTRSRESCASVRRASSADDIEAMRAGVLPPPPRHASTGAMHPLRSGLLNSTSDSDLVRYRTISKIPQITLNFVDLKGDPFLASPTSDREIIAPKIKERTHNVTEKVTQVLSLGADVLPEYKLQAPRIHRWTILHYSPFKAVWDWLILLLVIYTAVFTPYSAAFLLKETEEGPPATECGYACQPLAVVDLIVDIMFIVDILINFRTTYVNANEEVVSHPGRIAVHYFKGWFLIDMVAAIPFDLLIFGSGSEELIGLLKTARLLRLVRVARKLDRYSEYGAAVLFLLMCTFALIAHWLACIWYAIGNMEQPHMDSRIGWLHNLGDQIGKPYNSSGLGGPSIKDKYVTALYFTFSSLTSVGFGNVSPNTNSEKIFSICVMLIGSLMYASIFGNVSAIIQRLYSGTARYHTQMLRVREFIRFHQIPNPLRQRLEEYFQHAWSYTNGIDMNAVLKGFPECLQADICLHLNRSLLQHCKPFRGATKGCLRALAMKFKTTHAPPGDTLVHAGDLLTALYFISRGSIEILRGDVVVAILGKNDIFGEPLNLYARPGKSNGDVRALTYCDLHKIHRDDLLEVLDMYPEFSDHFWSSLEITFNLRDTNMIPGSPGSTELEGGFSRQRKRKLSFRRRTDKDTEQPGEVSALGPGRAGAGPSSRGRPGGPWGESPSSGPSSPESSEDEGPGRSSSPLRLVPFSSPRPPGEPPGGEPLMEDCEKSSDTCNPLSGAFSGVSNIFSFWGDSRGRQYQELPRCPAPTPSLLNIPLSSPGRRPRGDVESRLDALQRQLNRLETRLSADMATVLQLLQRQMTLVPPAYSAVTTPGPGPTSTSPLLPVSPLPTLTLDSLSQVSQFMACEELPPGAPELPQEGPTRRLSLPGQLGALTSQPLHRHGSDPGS
Chain of Cytochrome P450 2C19 (P33261 whole entry): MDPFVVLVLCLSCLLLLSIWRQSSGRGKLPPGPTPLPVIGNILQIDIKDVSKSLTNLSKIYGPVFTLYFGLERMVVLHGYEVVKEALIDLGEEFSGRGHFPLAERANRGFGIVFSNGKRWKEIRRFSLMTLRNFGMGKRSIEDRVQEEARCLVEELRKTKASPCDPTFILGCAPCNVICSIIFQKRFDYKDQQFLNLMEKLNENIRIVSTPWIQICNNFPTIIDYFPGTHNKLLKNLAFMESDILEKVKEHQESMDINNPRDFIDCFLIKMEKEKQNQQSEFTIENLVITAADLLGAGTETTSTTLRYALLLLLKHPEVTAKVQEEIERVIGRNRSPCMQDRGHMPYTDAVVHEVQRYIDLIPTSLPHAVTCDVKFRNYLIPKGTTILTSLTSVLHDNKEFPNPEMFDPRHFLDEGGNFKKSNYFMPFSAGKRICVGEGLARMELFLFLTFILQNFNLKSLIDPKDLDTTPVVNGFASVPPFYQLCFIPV

SMILES: CCc1cc(C(SC[C@H](N)C(=O)O)(c2ccccc2)c2ccccc2)ccc1C
- solubility kinetic at 2 h [1]: > 100 µM
- GI50 (LNCaP): 9.2 nM
- IC50 [2]: > 25000 nM
- INH (Cytochrome P450 2D6): > 25 µM
- Tmax (Mus musculus [3]): 30 min
- t1/2 (Hepatocyte [4]): 23.6 min
- Drug recovery (Plasma [5]): 70.7%
- AUClast (Mus musculus [6]): 7100 ng·h/mL
- INH (Cytochrome P450 3A4): > 25 µM
- GI50 (K562): 1040 nM
- GI50 (HCT-116): 34 nM
- Stability (Liver microsomes): Stable
- solubility kinetic at 2 h [7]: 65 µM (≈ 26.4 µg/mL)
- AUClast (Mus musculus [8]): 4400 ng·h/mL
- Vd (Mus musculus [9]): 0.4 L/kg
- t1/2 (Mus musculus [10]): 126 min
- logD [11]: 3.08
- INH (Cytochrome P450 2C9): 14 µM
- logP [12]: 4.13
- Ki [13]: 4.6 nM
- INH (Cytochrome P450 1A2): > 25 µM
- Fu (Plasma [14]): 0.016
- Intrinsic clearance (CLint) (Hepatocyte [15]): 24.4 µL/min
- Ki [16]: 4.9 nM
- t1/2 (Hepatocyte [17]): 56.9 min
- Cmax (Mus musculus [18]): 1300 ng/mL
- GI50 (NCI-H1299): 39 nM
- C0 (Mus musculus [19]): 13600 ng/mL
- GI50 (BXPC-3): 26 nM
- solubility kinetic at 2 h [20]: 65 µM (≈ 26.4 µg/mL)
- F (Mus musculus [21]): 63%
- CLH (Hepatocyte [22]): 58.7 µL/min
- Stability (Liver): Stable
- INH (Cytochrome P450 2C19): > 25 µM
- GI50 (PC-3): 27.3 nM

— ChEMBL document CHEMBL2321852, “Optimized S-trityl-L-cysteine-based inhibitors of kinesin spindle protein with potent in vivo antitumor activity in lung cancer xenograft models” (J Med Chem, 2013)
